Data on three substances can be found in patent publication US9598451B2, “Bis-organometallic 2-amino-3-hydroxy-2-methylpropanenitrile derivatives for use as anthelmintics” (UNIVERSITÄT ZÜRICH, priority 2013, dated 2017).

Holding throughout (type): cell-based
The test system of assay [1] is human lung fibroblasts MRC-5. The assay can be described thus: fluorometric cell viability assay (Resazurin), MRC-5. The settings on record: MRC-5 cells, treated for 2 days. The method, then: (§1) Cell Culture: Human cervical carcinoma cells (HeLa) were cultured in DMEM (Gibco) supplemented with 5% fetal calf serum (FCS, Gibco), 100 U/ml penicillin, 100 μg/ml streptomycin at 37° C. and 5% CO2. The normal human fetal lung fibroblast MRC-5 cell line was maintained in F-10 medium (Gibco) supplemented with 10% FCS (Gibco), 200 mmol/l L-Glutamine, 100 U/ml penicillin, and 100 μg/ml streptomycin at 37° C. and 5% CO2. To establish the anticancer potential of the compounds they were tested in one cell line, namely HeLa by a fluorometric cell viability assay using Resazurin (Promocell GmbH). Compounds showing cytotoxicity were then tested on normal MRC-5 cells. 1 day before treatment, cells were plated in triplicates in 96-well plates at a density of 4×10^3 cells/well in 100μl for HeLa and 7×10^3 cells/well for MRC-5 cells. Cells were treated with increasing concentrations of the compounds for 2 days. After 2 days, medium and drug were removed and […] fresh medium containing Resazurin (0.2 mg/ml final concentration) were added. After 4h of incubation at 37° C., the highly red fluorescent dye resorufin's fluorescence was quantified at 590 nm emission with 540 nm excitation wavelength in the SpectraMax M5 microplate Reader. […]
Background: Alamar Blue is a resazurin reagent that responds to reducing activity.

Assay [2] relates to human cervical cancer HeLa. The assay can be described thus: fluorometric cell viability assay (Resazurin), HeLa. The settings on record: HeLa cells, treated for 2 days. The method, then: as §1
Another assay relates to H. contortus. Briefly: larval development assay (number of L3). The method, then: In vitro experiments can be conducted by testing compounds in a larval development assay. To do this, sheep are infected with infective third-stage larvae (L3) of species of Haemonchus, Trichstrongylus, Teledorsagia, Cooperia, Oesophagostomum or Chabertia. Faeces from these sheep are collected and used for experiments; ˜100 g of faeces are crushed homogenized and suspended in ˜1000 ml of sugar solution (specific gravity 1.2), put through a ‘tea strainer’ sieve, and the large undigested food material in the sieve discarded. The sugar solution is then placed into a flat dish and strips of plastic overhead transparency film placed on the surface. The plastic is left for at least 45 minutes to allow the eggs to stick and then removed carefully. The eggs are collected by washing them from the plastic film, with water, into a 50 ml centrifuge tube. The water containing egg suspension eggs is put through a […] to remove further plant material and then centrifuged at 1,000×g for 10 minutes. The supernatant is checked for eggs and then discarded as the majority of eggs are at the bottom of the tube. These eggs are collected in 1 ml of water and diluted to ˜200 eggs/20 ml. • 1. […] Following 7 days additional incubation, the numbers of L3 larvae that had developed in each well is determined.

A further assay relates to C. elegans. The assay can be described thus: C. elegans movement inhibition assay. The following applies: for mobility of the C. elegans worms: 50 μM, result in words. The method, then:
C. elegans movement inhibition assay: Asynchronous N2 C. elegans worms (Bristol) were maintained on nematode growth medium (NGM) agar, seeded with a lawn on OP50 E. coli as a food-source, according to standard protocol (Maintenance of C. elegans; Stiernagle, T., Ed.; WormBook, 2006.). Worms were harvested from NGM plates by washing with M9 buffer (42 mmol/l Na2HPO4, 86 mmol/l NaCl and 1 mmol/l MgSO4), aspiration and collection in a 10 mL tube (Falcon). The average number of worms in 5 μL of this suspension was calculated by transferring 4×5 μL aliquots to a glass slide (Menzel Glaser), and worms were enumerated under a compound microscope (Olympus CH30). To adjust the suspension to contain 1 worm per μL, M9 buffer was either added or removed after pelleting worms at 600×g for 30 sec.
Dilution of test compounds, Zolvix (monepantel) and DMSO for working stock solutions and 96 well plate set-up for liquid screen: A volume of […] buffer was added to each well in a 96-well plate, using a multichannel pipettor. A volume of 20μL of worm suspension was added to each well using a single-channel pipettor, with a trimmed pipette tip (increased aperture to minimize damage to worms). The worm suspension was resuspended by flicking after every three wells to maintain consistency. The compounds were stored at 4° C., and diluted in dimethyl sulfoxide (DMSO) to achieve a 100 mmol/l concentration 1 hr prior to addition to assay. These stock solutions were diluted further in DMSO to create a series of 20 mmol/l, […] and 0.002 mmol/l which were subsequently diluted 1:20 in M9 buffer to create 1 mmol/l, 0.1 mmol/l, 1 μmol/l and 0.1 μmol/l (all 5% (v/v) DMSO). […] A Zolvix (monepantel) dilution series was simultaneously created following the same dilution schema, and used as a positive control; 10 μL of 10% DMSO was added to achieve 1% DMSO vehicle control. 10 μL M9 was added to negative control wells (see FIG. 1). Plates were incubated at […]
Quantitative worm mobility scoring: Immobile worms were counted as a percentage of total worms in each well using an Olympus SZ30 dissecting microscope. The immobile fraction was subtracted from the total, and this remainder was divided by the total to give a percentage of live worms per well. Descriptive and inferential statistics were deferred until further replicates are performed.

One may read the IC50 as the midpoint of a concentration-inhibition curve. Take “2-Cyano-2-(ruthenocenecarboxamido)propyl ruthenocnecarboxylate [Compound 2a]”: the concentration for half-maximal inhibition (IC50) in assay [1] and in assay [2] was more than 100 µM in each case.
“2-Ferroceneamido-2-cyanopropyl ferrocenate [Compound 2]” gave an IC50 in assay [1] of 24.6 µM. Further, the “Number of L3 H. contortus/100 μM” value in the assay with H. contortus is more than 100. Besides, in assay [2], the IC50 was more than 100 µM. For the same substance, in the assay with C. elegans, the “Mobility in C. elegans at 50 μM” value is recorded as 22% and the “mobility of the C. elegans worms” value is “reduced”.
For “N-(1-(ferrocenyloxy)-2-cyanopropan-2-yl)ferroceneamide [Compound 1]”, the “Number of L3 H. contortus/100 μM” value in the assay on H. contortus is recorded as 94.7. Also, in the assay with C. elegans, the “Mobility in C. elegans at 50 μM” value worked out at 25% and the “mobility of the C. elegans worms” value is listed as “reduced”.
